Experimental data published in ChEMBL document CHEMBL5252649, “CRBN ligand expansion for hematopoietic prostaglandin D2 synthase (H-PGDS) targeting PROTAC design and their in vitro ADME profiles” (Bioorg Med Chem, 2023).
Values after ≈ are worked out from the molar mass of the structure shown.

Assays:
[1] = Metabolic stability of the compound in human liver microsomes incubated for 60 mins in presence of NADPH by UPLC/MS/MS analysis; type: ADME, Microsome; conditions: read-out: Stability
[2] = Solubility of the compound in PBS buffer at 100 uM at pH 7.4 by UPLC/MS/MS analysis; type: physicochemical
[3] = Metabolic stability of the compound in human liver microsomes incubated for 10 mins in presence of NADPH by UPLC/MS/MS analysis; type: ADME, Microsome; conditions: read-out: Stability
[4] = Apparent permeability coefficient, Papp of the compound at pH 7.4 incubated for 4 hrs by UPLC/MS/MS analysis; type: ADME; conditions: for Papp at 4 h: not told, pH 7.4
[5] = Lipophilicity, logD of the compound by UPLC analysis; type: physicochemical; conditions: octanol/water
[6] = target: Protein cereblon/Hematopoietic prostaglandin D synthase (Homo sapiens, UniProt O60760+Q96SW2); experiment: PROTAC activity at CRBN/H-PGDS in human KU812 cells assessed as induction of H-PGDS degradation by measuring decrease in H-PGDS protein expression incubated for 24 hrs by western blot analysis; type: cell-based; conditions: for Activity: KU812 cell line; for DC50: ku812 cell line

Row | SMILES | remaining at 1 h [1] [%] | solubility at 100 µM [2] [µM] | remaining at 10 min [3] [%] | Papp at 4 h [4] [×10⁻⁶ cm/s] | logD [5] | Activity [6] | DC50 [6] [nM] | Papp ([4]; pH 7.4, 4 h) [×10⁻⁶ cm/s]
1 | Cn1cccc1C(=O)N1CCN(C(=O)Nc2ccc(N3CCC(C(=O)N4CCOCC4)CC3)cc2)CC1 | 83 | ≥ 95 | 92 | 0.21 | 2.25 | – | – | –
2 | O=C1CCC(N2C(=O)c3ccc(N4CCN(C(=O)C5CCN(c6ccc(NC(=O)c7cnc(Oc8ccccc8)nc7)cc6)CC5)CC4)cc3C2=O)C(=O)N1 (stereo not drawn) | 80 | < 0.5 | 93 | 0.049 | 3.33 | – | 0.175 | –
3 | O=C(Nc1ccc(N2CCC(C(=O)N3CCOCC3)CC2)cc1)c1cnc(Oc2ccccc2)nc1 | 80 | 3.17 (≈ 1.55 µg/mL) | 96 | 3.01 | 3.06 | – | – | –
4 | Cn1cccc1C(=O)N1CCN(C(=O)Nc2ccc(N3CCC(C(=O)N4CCN(c5ccc6c(c5)C(=O)N(C5CCC(=O)NC5=O)C6=O)CC4)CC3)cc2)CC1 (stereo not drawn) | 72 | 2.91 (≈ 2.22 µg/mL) | 90 | 0.009 | 2.65 | – | 0.02 | –

The next lines start with the values.

Row | remaining at 1 h [1] [%] | solubility at 100 µM [2] [µM] | remaining at 10 min [3] [%] | Papp at 4 h [4] [×10⁻⁶ cm/s] | logD [5] | Activity [6] | DC50 [6] [nM] | Papp ([4]; pH 7.4, 4 h) [×10⁻⁶ cm/s] | SMILES
5 | 69 | < 0.5 | 93 | 0.007 | 3.5 | Dose-Dependent Effect | 0.147 | – | O=C1CCC(N2C(=O)c3cc(F)c(N4CCN(C(=O)C5CCN(c6ccc(NC(=O)c7cnc(Oc8ccccc8)nc7)cc6)CC5)CC4)cc3C2=O)C(=O)N1 (stereo not drawn)
6 | 75 | 1.12 (≈ 0.832 µg/mL) | 89 | 0.07 | 3.39 | – | 0.036 | – | O=C1CCC(N2C(=O)c3cccc(N4CCN(C(=O)C5CCN(c6ccc(NC(=O)c7cnc(Oc8ccccc8)nc7)cc6)CC5)CC4)c3C2=O)C(=O)N1 (stereo not drawn)
7 | 78 | 7 (≈ 5.12 µg/mL) | 89 | 0.2 | 3 | Dose-Dependent Effect | 0.104 | – | O=C1CCC(c2ccc(NCC(=O)N3CCN(C(=O)C4CCN(c5ccc(NC(=O)c6cnc(Oc7ccccc7)nc6)cc5)CC4)CC3)cc2)C(=O)N1 (stereo not drawn)
8 | 79 | 37.4 (≈ 28.6 µg/mL) | 93 | – | 2.79 | – | 0.02 | 0.0007 | Cn1cccc1C(=O)N1CCN(C(=O)Nc2ccc(N3CCC(C(=O)N4CCN(c5cccc6c5C(=O)N(C5CCC(=O)NC5=O)C6=O)CC4)CC3)cc2)CC1 (stereo not drawn)
